According to ChEMBL document CHEMBL1287717, “Design and synthesis of macrocyclic indoles targeting blood coagulation cascade Factor XIa” (Bioorg Med Chem Lett, 2010):
Calls of active or inactive are those of the source. No cut-off for these calls is given here.

Assays:
Coagulation factor XI [1] = biological target: T1, Coagulation factor XI (Homo sapiens, UniProt P03951); assay: Inhibition of factor 11a
Prothrombin [2] = biological target: T2, Prothrombin (Homo sapiens, UniProt P00734); assay: Inhibition of factor 2a at 300 uM
[3] = biological target: T3, Vitamin K-dependent protein C (Homo sapiens, UniProt P04070); assay: Inhibition of activated protein C
T3 sequence (P04070 43-197 limits assumed): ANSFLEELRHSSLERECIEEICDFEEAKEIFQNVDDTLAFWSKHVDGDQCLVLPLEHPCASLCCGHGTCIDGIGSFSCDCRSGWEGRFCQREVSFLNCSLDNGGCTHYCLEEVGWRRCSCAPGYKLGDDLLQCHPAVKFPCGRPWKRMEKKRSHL
T3 sequence (P04070 212-461 limits assumed): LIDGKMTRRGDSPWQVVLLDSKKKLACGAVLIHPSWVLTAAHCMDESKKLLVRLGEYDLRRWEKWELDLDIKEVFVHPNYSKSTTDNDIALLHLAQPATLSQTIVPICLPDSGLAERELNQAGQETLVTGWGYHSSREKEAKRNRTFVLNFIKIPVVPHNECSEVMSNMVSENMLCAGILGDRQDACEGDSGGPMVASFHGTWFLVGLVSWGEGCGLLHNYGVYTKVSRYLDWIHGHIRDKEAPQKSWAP

Trypsin = Trypsin (Homo sapiens, UniProt P07477+P07478+P35030); assay: Inhibition of human trypsin; assay type: protein assay
Prothrombin [4] = biological target: T2, Prothrombin; assay: Inhibition of factor 2a
Coagulation factor XI [5] = biological target: T1, Coagulation factor XI; assay: Inhibition of factor 11a at 300 uM
[6] = biological target: T3, Vitamin K-dependent protein C; assay: Inhibition of activated protein C at 300 uM
[7] = biological target: Coagulation factor IX (Homo sapiens) (UniProt P00740); assay: Inhibition of factor 9a at 300 uM
Sequence of Coagulation factor IX (Homo sapiens) (P00740 47-191 limits assumed): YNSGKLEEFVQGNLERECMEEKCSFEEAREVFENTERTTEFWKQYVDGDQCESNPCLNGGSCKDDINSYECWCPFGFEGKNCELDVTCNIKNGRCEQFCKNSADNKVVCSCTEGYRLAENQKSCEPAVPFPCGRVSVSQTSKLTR
Sequence of Coagulation factor IX (Homo sapiens) (P00740 227-461 limits assumed): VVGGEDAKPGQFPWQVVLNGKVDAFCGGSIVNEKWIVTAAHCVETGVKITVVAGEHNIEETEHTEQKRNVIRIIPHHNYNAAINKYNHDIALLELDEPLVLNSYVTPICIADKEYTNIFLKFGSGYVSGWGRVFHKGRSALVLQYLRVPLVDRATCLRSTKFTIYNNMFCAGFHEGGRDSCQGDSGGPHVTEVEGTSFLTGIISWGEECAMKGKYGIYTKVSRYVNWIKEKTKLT

T1 sequence (P03951 19-387 limits assumed): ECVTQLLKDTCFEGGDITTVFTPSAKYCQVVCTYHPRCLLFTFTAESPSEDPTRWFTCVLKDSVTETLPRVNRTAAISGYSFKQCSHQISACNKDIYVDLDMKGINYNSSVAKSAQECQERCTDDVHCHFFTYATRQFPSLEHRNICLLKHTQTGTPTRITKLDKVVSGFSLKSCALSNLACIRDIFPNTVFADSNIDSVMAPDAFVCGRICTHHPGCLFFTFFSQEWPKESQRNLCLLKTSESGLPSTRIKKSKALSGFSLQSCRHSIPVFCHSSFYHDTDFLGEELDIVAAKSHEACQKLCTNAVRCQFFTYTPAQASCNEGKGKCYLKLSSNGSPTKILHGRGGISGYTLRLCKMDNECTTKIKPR
T1 sequence (P03951 388-625 limits assumed): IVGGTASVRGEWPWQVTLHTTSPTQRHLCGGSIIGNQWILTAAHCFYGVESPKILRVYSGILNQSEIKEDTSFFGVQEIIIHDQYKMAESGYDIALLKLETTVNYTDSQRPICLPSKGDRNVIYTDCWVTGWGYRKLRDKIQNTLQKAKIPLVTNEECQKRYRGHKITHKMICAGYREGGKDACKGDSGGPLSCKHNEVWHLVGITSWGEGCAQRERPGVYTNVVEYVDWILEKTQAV

Row | SMILES | IC50 (Coagulation factor XI [1]) [µM] | inhibition (Prothrombin [2]) | IC50 [3] [µM] | Kic [3] [µM] | IC50 (Trypsin) [µM] | Kic (Trypsin) [µM] | IC50 (Prothrombin [4]) [µM] | inhibition [6] | Kic (Coagulation factor XI [1]) [µM] | further results
1 | CC(C)C[C@@H]1NC(=O)[C@@H](C2CCCCC2)NC(=O)[C@H](c2ccccc2)C/C=C/Cc2[nH]c3ccc(Cl)cc3c2CNC1=O | 136 | inactive | 145 | 116 | 0.26 | 0.031 | – | – | – | –
2 | NC(N)=NCCC[C@@H]1NC(=O)[C@@H]2CCCN2C(=O)[C@@H](NC=O)CNC(=O)/C=C/[C@H](Cc2ccc(O)cc2)NC(=O)[C@@H](Cc2ccccc2)NC(=O)C1=O [CYCLOTHEONAMIDE A] | – | – | – | – | – | – | 0.0015 | – | – | –
3 | O=C1Cn2c(Cl)cnc(c2=O)N[C@@H](Cc2ccccc2)CNCCCNCCc2ccc(Cl)cc2CN1 | – | – | – | – | – | – | – | – | – | Ki (Prothrombin [4]): 0.09 nM
4 | C=CCc1[nH]c2ccc(Cl)cc2c1CNC(=O)[C@H](CC(C)C)NC(=O)[C@H](NC(=O)[C@@H](CC=C)c1ccccc1)C1CCCCC1 | 146 | inactive | 103 | 82.8 | 0.16 | 0.02 | – | – | 73 | –
5 | CC(C)C[C@@H]1NC(=O)[C@@H](C2CCCCC2)NC(=O)CC/C=C/Cc2[nH]c3ccc(Cl)cc3c2CNC1=O | – | – | – | – | – | – | – | – | – | inhibition [7]: inactive
6 | CCCCCC(=O)NCC(=O)N[C@H](C(=O)N[C@@H]1C(=O)N[C@@H](CCC(N)=O)C(=O)N[C@H]2CC[C@@H](O)N(C2=O)[C@@H](Cc2ccccc2)C(=O)N(C)[C@@H](Cc2c[nH]c3ccccc23)C(=O)N[C@@H](C(C)C)C(=O)O[C@@H]1C)[C@@H](C)O [MICROPEPTIN 103] | – | – | – | – | – | – | 8.7 | – | – | –
7 | CC(C)C[C@@H]1NC(=O)[C@@H](C2CCCCC2)NC(=O)CCCCCc2[nH]c3ccc(Cl)cc3c2CNC1=O | – | – | 395 | 316 | 10 | 1.22 | 10.6 | – | – | inhibition (Coagulation factor XI [5]): inactive; Kic (Prothrombin [4]): 1.7 µM
8 | CC(C)C[C@@H]1NC(=O)[C@@H](C2CCCCC2)NS(=O)(=O)CC/C=C/Cc2[nH]c3ccc(Cl)cc3c2CNC1=O | 768 | – | – | – | 2.69 | 0.328 | 67.9 | inactive | 384 | Kic (Prothrombin [4]): 10.6 µM
9 | CC(C)C[C@@H]1NC(=O)[C@@H](C2CCCCC2)NS(=O)(=O)CCCCCc2[nH]c3ccc(Cl)cc3c2CNC1=O | 176 | inactive | – | – | 2.43 | 0.296 | – | inactive | 87.9 | –

More lines, main results first:

Row | IC50 (Coagulation factor XI [1]) [µM] | inhibition (Prothrombin [2]) | IC50 [3] [µM] | Kic [3] [µM] | IC50 (Trypsin) [µM] | Kic (Trypsin) [µM] | IC50 (Prothrombin [4]) [µM] | inhibition [6] | Kic (Coagulation factor XI [1]) [µM] | SMILES | further results
10 | – | inactive | – | – | 1.16 | 0.142 | – | inactive | – | C=CCCS(=O)(=O)N[C@@H](C(=O)N[C@@H](CC(C)C)C(=O)NCc1c(CC=C)[nH]c2ccc(Cl)cc12)C1CCCCC1 | inhibition (Coagulation factor XI [5]): inactive
11 | – | – | – | – | – | – | 0.0057 | – | – | CO[C@H](COS(=O)(=O)[O-])C(=O)N[C@@H](C(=O)N1[C@H](C(=O)NCCC2=CC[N+](=C(N)N)C2)C[C@@H]2C[C@H](O)[C@@H](O)C[C@@H]21)[C@H](Cl)C(C)C [CHLORODYSINOSIN A] | –
12 | 103 | inactive | 284 | 227 | 2.17 | 0.264 | – | – | 51.6 | C=CCCC(=O)N[C@@H](C(=O)N[C@@H](CC(C)C)C(=O)NCc1c(CC=C)[nH]c2ccc(Cl)cc12)C1CCCCC1 | –
13 | – | inactive | – | – | 2.31 | 0.281 | – | inactive | – | CC(C)C[C@@H]1NC(=O)[C@@H](C2CCCCC2)NC(=O)[C@H](c2ccccc2)CCCCc2[nH]c3ccc(Cl)cc3c2CNC1=O | inhibition (Coagulation factor XI [5]): inactive
